Holding throughout (experiment): microbial growth inhibition plus red cell haemolysis – Idler compounds, first plate, PMBN-permeabilized strains, profiling panel (AID 2061108)
What all share (set-up): haemolysis: dose or concentration left out as unconfirmed

The subject of assay [1] is E. coli NCTC 12923 growth inhibition, 100 uM. Conditions: E. coli NCTC 12923 growth inhibition, 100 µM; stronger effect = higher value.
Assay [2] relates to red blood cell haemolysis. Conditions: stronger effect = higher value; dose or concentration not given here.
Assay [3] has as its system M. avium growth inhibition, 10 uM. Conditions: M. avium growth inhibition, 10 µM.
For assay [4], the system named is E. coli NCTC 12923 + PMBN growth inhibition, 100 uM. Conditions: S. aureus ATCC 9144 growth inhibition; measured here: E. coli plus PMBN; at 100 µM; stronger effect = higher value.
Assay [5] has as its system M. abscessus growth inhibition, 10 uM. The conditions noted are these: S. aureus ATCC 9144 growth inhibition; measured here: M. abscessus; at 10 µM.
The subject of assay [6] is A. baumannii ATCC 17978 + PMBN growth inhibition, 100 uM. Conditions: A. baumannii plus PMBN growth inhibition, 100 µM; stronger effect = higher value.
The subject of assay [7] is S. aureus ATCC 9144 growth inhibition, 100 uM. Conditions: S. aureus ATCC 9144 growth inhibition; at 100 µM; stronger effect = higher value.
The test system of assay [8] is C. albicans NCPF 3281 growth inhibition, 100 uM. Conditions: S. aureus ATCC 9144 growth inhibition; measured here: C. albicans NCPF 3281; at 100 µM; stronger effect = higher value.
Assay [9] has as its system A. baumannii ATCC 17978 growth inhibition, 100 uM. Conditions: S. aureus ATCC 9144 growth inhibition; measured here: A. baumannii ATCC 17978; at 100 µM; stronger effect = higher value.

Each structure is given as a SMILES string. Activity calls are given as the source filed them. How the calls were made is not given here.

The inhibition is the drop in the measured response relative to a control, in per cent.

In the case of `N#Cc1c(N2Cc3cccc(O)c3C2)nc2ccccc2c1C(F)(F)F`, the inhibition in assay [1] was 2.16%; in [3], 0.654%; in assay [4], 35.4%; in assay [5] it was -1.26%; in [6] it was 33.9%; in assay [7], 97%. Besides, the inhibition in [8] is 3.66%; in assay [9], 23.8%. Also, in [2], the haemolysis is -0.139%.
For `COc1cccc(C(=O)NCCOCc2cccc(N)c2)c1`, the inhibition in assay [1] is -10.5%; in assay [3] it was 2.24%; in assay [4], 4.39%; in assay [5], -0.253%; in [6], 23.9%; in [7] it was 13.7% (inactive). Further, the inhibition in assay [8] was -63.9%; in [9], -1.45%. Besides, the haemolysis in assay [2] is 0.269%.
Turning to `COc1cc2nc(NCCCN(C)C)nc(N3CC(N(C)C)C3)c2cc1OC`, the inhibition was 11.5% in assay [1]; 5.58% in assay [3]; 2.07% in assay [4]; 1.59% in [5]; 29.9% in assay [6]; 37.5% (inactive) in assay [7]. Besides, the values for the inhibition in assay [8] and in assay [9] were -118% and 17.3%, respectively. Besides, in assay [2], the haemolysis was determined as 0.15%.
Turning to `Nc1ncnc2cc(-c3cccc(S(=O)(=O)NC(=O)C(N)CC(=O)O)c3)sc12` (stereo not drawn), the inhibition in assay [1] is 0.676%; in assay [3], 11.9%; in [4], 8.15%; in assay [5], -1.16%; in assay [6] it was 9.86%; in assay [7] it was 15.7% (inactive). For the same compound, the inhibition was -64.6% in [8] and -7.14% in [9]. The haemolysis in assay [2] is -0.194%.
As for `O=S(=O)(F)c1ncc(Cl)cc1Br`, the inhibition is -27.7% in assay [1]; 0.219% in assay [3]; -23.7% in [4]; -0.925% in assay [5]; 5.94% in assay [6]; -14.2% (inactive) in [7]. Besides, the figures for the inhibition in [8] and in assay [9] were -41.4% and 0.595%, respectively. The haemolysis in assay [2] came to 0.564%.
On to `O=S(=O)(c1ccc2nncn2c1)N(Cc1cccc(F)c1)c1ccc2c(c1)OCCO2`, for which the inhibition is -55.8% in [1]; -0.711% in assay [3]; -20.9% in assay [4]; -0.196% in [5]; 11.3% in assay [6]; -8.6% (inactive) in assay [7]. Further, the figures for the inhibition in assay [8] and in assay [9] were -82.4% and -2.17%, respectively. For the same compound, in [2], the haemolysis amounted to 8.17%.
Take `Cc1cccc(C)c1OCC(O)CSc1ccccn1` (stereo not drawn): the inhibition was -44.2% in assay [1]; -0.789% in [3]; 59.6% in assay [4]; -0.104% in [5]; 51.9% in [6]; -7.89% (inactive) in assay [7]. In addition, the inhibition in assay [8] is -34.4%; in [9], 11.9%. Besides, the haemolysis in [2] was 0.214%.
